From patent US10703755B2, “Substituted purine derivative” (SUMITOMO DAINIPPON PHARMA CO., LTD., priority 2016, dated 2020)

Target: human TLR7 (Homo sapiens (Human), UniProt Q9NYK1)
Assay: Test for evaluating the inhibition of the activation of human TLR7 (SEAP reporter, TLR7/NF-κB/SEAPorter HEK293 cell)
Assay type: cell-based
Conditions: R-848 200 nmol/L; for inhibitory effect against TLR7 in the test for evaluating inhibition of the activation of TLR7: SEAP activity, result in words; for IC50: SEAP reporter
In short: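 HEK293 cells stably expressing full-length human TLR7 and an NF-κB-driven SEAP reporter. They were grown in DMEM with 10% FBS and blasticidin, and seeded at 5×10^4 cells/well overnight at 37° C, 5% CO2. Inhibition of TLR7 activation was read as SEAP output.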

Sequence of human TLR7 (Q9NYK1 27-1049): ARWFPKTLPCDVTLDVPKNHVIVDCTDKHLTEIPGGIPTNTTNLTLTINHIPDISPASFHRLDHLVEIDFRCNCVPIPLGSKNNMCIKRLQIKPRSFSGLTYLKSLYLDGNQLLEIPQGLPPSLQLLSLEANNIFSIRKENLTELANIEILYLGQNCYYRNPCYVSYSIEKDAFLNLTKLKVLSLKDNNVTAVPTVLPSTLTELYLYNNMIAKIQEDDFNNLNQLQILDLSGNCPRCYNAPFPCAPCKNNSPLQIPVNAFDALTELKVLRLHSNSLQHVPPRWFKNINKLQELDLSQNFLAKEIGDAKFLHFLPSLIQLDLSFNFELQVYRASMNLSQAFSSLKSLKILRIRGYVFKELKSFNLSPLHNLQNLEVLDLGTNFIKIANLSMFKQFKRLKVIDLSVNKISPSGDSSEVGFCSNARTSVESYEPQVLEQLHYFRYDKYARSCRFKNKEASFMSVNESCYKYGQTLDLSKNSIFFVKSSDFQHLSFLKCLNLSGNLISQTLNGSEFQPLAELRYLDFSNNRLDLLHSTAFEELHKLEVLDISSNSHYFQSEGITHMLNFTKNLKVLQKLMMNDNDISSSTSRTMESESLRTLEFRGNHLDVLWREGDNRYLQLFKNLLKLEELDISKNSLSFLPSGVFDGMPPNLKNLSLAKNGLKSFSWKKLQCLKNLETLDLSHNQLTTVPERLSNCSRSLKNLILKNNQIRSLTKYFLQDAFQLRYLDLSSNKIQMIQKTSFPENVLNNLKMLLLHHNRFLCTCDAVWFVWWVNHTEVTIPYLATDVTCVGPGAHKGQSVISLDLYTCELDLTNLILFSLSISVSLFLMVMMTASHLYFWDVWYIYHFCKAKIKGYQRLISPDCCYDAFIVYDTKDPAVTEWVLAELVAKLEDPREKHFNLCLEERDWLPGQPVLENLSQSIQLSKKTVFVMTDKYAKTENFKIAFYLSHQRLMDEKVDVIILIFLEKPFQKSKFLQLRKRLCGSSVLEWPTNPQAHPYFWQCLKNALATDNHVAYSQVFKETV

| SMILES | inhibitory effect against TLR7 in the test for evaluating inhibition of the activation of TLR7 | IC50 |
| --- | --- | --- |
| CCOc1nc(C)c2nc(-c3cncc(F)c3)n(Cc3cnn(CC4CCN(C)C4)c3)c2n1 (stereo not drawn) [Example 279] | potent inhibitory effect against TLR7 | 40 nM |
| COc1nc(C)c2nc(-c3cncc(F)c3)n(Cc3ccc(CN4C[C@@H]5C[C@H]4CN5C)cc3F)c2n1 [Example 280, 9-(2-fluoro-4-{[(1S,4S)-5-methyl-2,5-diazabicyclo[2.2.1]hept-2-yl]methyl}benzyl)-8-(5-fluoropyridin-3-yl)-2-methoxy-6-methyl-9H-purine] | potent inhibitory effect against TLR7 | 3 nM |
| CCOc1nc(C)c2nc(-c3cncc(F)c3)n(Cc3cnc(CC4CCN(C)CC4)cc3OC)c2n1 [Example 281] | – | 142 nM |
| COc1nc(C)c2nc(-c3cncc(F)c3)n(Cc3ccc(C4CCN(C)CC4)cc3F)c2n1 [Example 282, 9-[2-fluoro-4-(1-methylpiperidin-4-yl)benzyl]-8-(5-fluoropyridin-3-yl)-2-methoxy-6-methyl-9H-purine] | potent inhibitory effect against TLR7 | 8 nM |
| COc1nc(C)c2nc(-c3cncc(F)c3)n(Cc3ccc(CC4CCN(C)CC4)cc3F)c2n1 [Example 283] | potent inhibitory effect against TLR7 | 21 nM |
| CCN1CCC(c2ccc(Cn3c(-c4cncc(F)c4)nc4c(C)nc(OC)nc43)c(F)c2)CC1 [Example 284, 9-[4-(1-ethylpiperidin-4-yl)-2-fluorobenzyl]-8-(5-fluoropyridin-3-yl)-2-methoxy-6-methyl-9H-purine] | potent inhibitory effect against TLR7 | 3 nM |
| COc1nc(C)c2nc(-c3cncc(F)c3)n(Cc3ccc(O[C@H]4C[C@H]5CC[C@@H](C4)N5C)cc3F)c2n1 [Example 285, 9-(2-fluoro-4-{[(3-endo)-8-methyl-8-azabicyclo[3.2.1]oct-3-yl]oxy}benzyl)-8-(5-fluoropyridin-3-yl)-2-methoxy-6-methyl-9H-purine] | potent inhibitory effect against TLR7 | 2 nM |
| COc1nc(C)c2nc(-c3cncc(F)c3)n(Cc3ccc(OCC4CN(C)C4)cc3F)c2n1 [Example 286, 9-{2-fluoro-4-[(1-methylazetidin-3-yl)methoxy]benzyl}-8-(5-fluoropyridin-3-yl)-2-methoxy-6-methyl-9H-purine] | potent inhibitory effect against TLR7 | 26 nM |
| CCN1CC(COc2ccc(Cn3c(-c4cncc(F)c4)nc4c(C)nc(OC)nc43)c(F)c2)C1 [Example 287] | potent inhibitory effect against TLR7 | 29 nM |
| COc1nc(C)c2nc(-c3cncc(C#N)c3)n(Cc3ccc(C4CCN(C)CC4)cc3F)c2n1 [Example 288] | potent inhibitory effect against TLR7 | 62 nM |
| CCN1CCC(c2ccc(Cn3c(-c4cncc(C#N)c4)nc4c(C)nc(OC)nc43)c(F)c2)CC1 [Example 289, 5-{9-[4-(1-ethylpiperidin-4-yl)-2-fluorobenzyl]-2-methoxy-6-methyl-9H-purin-8-yl}pyridine-3-carbonitrile] | potent inhibitory effect against TLR7 | 30 nM |
| COc1nc(C)c2nc(-c3cncc(F)c3)n(Cc3ccc(C4CCN(C)C4)cc3F)c2n1 (stereo not drawn) [Example 290, 9-[2-fluoro-4-(1-methylpyrrolidin-3-yl)benzyl]-8-(5-fluoropyridin-3-yl)-2-methoxy-6-methyl-9H-purine] | potent inhibitory effect against TLR7 | 22 nM |
| CCN1CCC(c2ccc(Cn3c(-c4cncc(F)c4)nc4c(C)nc(OC)nc43)c(F)c2)C1 (stereo not drawn) [Example 291, 9-[4-(1-ethylpyrrolidin-3-yl)-2-fluorobenzyl]-8-(5-fluoropyridin-3-yl)-2-methoxy-6-methyl-9H-purine] | potent inhibitory effect against TLR7 | 17 nM |
| COc1nc(C)c2nc(-c3cccnc3)n(Cc3ccc(C4CCN(C)CC4)cc3F)c2n1 [Example 292, 9-[2-fluoro-4-(1-methylpiperidin-4-yl)benzyl]-2-methoxy-6-methyl-8-(pyridin-3-yl)-9H-purine] | potent inhibitory effect against TLR7 | 39 nM |
| CCN1CCC(c2ccc(Cn3c(-c4cccnc4)nc4c(C)nc(OC)nc43)c(F)c2)CC1 [Example 293, 9-[4-(1-ethylpiperidin-4-yl)-2-fluorobenzyl]-2-methoxy-6-methyl-8-(pyridin-3-yl)-9H-purine] | potent inhibitory effect against TLR7 | 18 nM |
| COc1nc(C)c2nc(-c3cncnc3)n(Cc3ccc(OC4CC5CCC(C4)N5C)cc3F)c2n1 (stereo not drawn) [Example 294, 9-(2-fluoro-4-{[(3-endo)-8-methyl-8-azabicyclo[3.2.1]oct-3-yl]oxy}benzyl)-2-methoxy-6-methyl-8-(pyrimidin-5-yl)-9H-purine] | potent inhibitory effect against TLR7 | 19 nM |
| COc1nc(C)c2nc(-c3cncc(C#N)c3)n(Cc3ccc(OC4CC5CCC(C4)N5C)cc3F)c2n1 (stereo not drawn) [Example 295, 5-[9-(2-fluoro-4-{[(3-endo)-8-methyl-8-azabicyclo[3.2.1]oct-3-yl]oxy}benzyl)-2-methoxy-6-methyl-9H-purin-8-yl]pyridine-3-carbonitrile] | potent inhibitory effect against TLR7 | 13 nM |
| CCN1C2CCC1CC(Oc1ccc(Cn3c(-c4cncc(C#N)c4)nc4c(C)nc(OC)nc43)c(F)c1)C2 (stereo not drawn) [Example 296, 5-[9-(4-{[(3-endo)-8-ethyl-8-azabicyclo[3.2.1]oct-3-yl]oxy}-2-fluorobenzyl)-2-methoxy-6-methyl-9H-purin-8-yl]pyridine-3-carbonitrile] | potent inhibitory effect against TLR7 | 21 nM |
| COc1nc(C)c2nc(-c3cccnc3)n(Cc3ccc(OC4CC5CCC(C4)N5C)cc3F)c2n1 (stereo not drawn) [Example 297, 9-(2-fluoro-4-{[(3-endo)-8-methyl-8-azabicyclo[3.2.1]oct-3-yl]oxy}benzyl)-2-methoxy-6-methyl-8-(pyridin-3-yl)-9H-purine] | potent inhibitory effect against TLR7 | 50 nM |
| CCOc1nc(C)c2nc(-c3cncc(F)c3)n(Cc3cnn(CCN4CCN(C)CC4)c3)c2n1 [Example 300] | potent inhibitory effect against TLR7 | 28 nM |
| COc1cncc(-c2nc3c(C)nc(OC)nc3n2Cc2ccc(C3CN4CCC3CC4)cc2F)c1 (stereo not drawn) [Example 302] | potent inhibitory effect against TLR7 | 67 nM |
| COc1nc(C)c2nc(-c3cccnc3)n(Cc3ccc(C4CN5CCC4CC5)cc3F)c2n1 (stereo not drawn) [Example 303, 9-[4-(1-azabicyclo[2.2.2]oct-3-yl)-2-fluorobenzyl]-2-methoxy-6-methyl-8-(pyridin-3-yl)-9H-purine] | potent inhibitory effect against TLR7 | 7 nM |
| COc1nc(C)c2nc(-c3cnccc3C)n(Cc3ccc(C4CN5CCC4CC5)cc3F)c2n1 (stereo not drawn) [Example 304, 9-[4-(1-azabicyclo[2.2.2]oct-3-yl)-2-fluorobenzyl]-2-methoxy-6-methyl-8-(4-methylpyridin-3-yl)-9H-purine] | potent inhibitory effect against TLR7 | 4 nM |
| COc1nc(C)c2nc(-c3cncc(C)c3)n(Cc3ccc(C4CN5CCC4CC5)cc3F)c2n1 (stereo not drawn) [Example 305, 9-[4-(1-azabicyclo[2.2.2]oct-3-yl)-2-fluorobenzyl]-2-methoxy-6-methyl-8-(5-methylpyridin-3-yl)-9H-purine] | potent inhibitory effect against TLR7 | 5 nM |
| COc1nc(C)c2nc(-c3ccc(C)nc3)n(Cc3ccc(C4CN5CCC4CC5)cc3F)c2n1 (stereo not drawn) [Example 306] | potent inhibitory effect against TLR7 | 40 nM |
| CCOc1nc(C)c2nc(-c3cncc(F)c3)n(Cc3ccc(C4CN(C)CCO4)cc3F)c2n1 (stereo not drawn) [Example 307] | potent inhibitory effect against TLR7 | 57 nM |
| COc1nc(C)c2nc(-c3cncc(C#N)c3)n(Cc3ccc(CN4C[C@@H]5C[C@H]4CN5C)cc3F)c2n1 [Example 308, 5-[9-(2-fluoro-4-{[(1S,4S)-5-methyl-2,5-diazabicyclo[2.2.1]hept-2-yl]methyl}benzyl)-2-methoxy-6-methyl-9H-purin-8-yl]pyridine-3-carbonitrile] | potent inhibitory effect against TLR7 | 27 nM |
| CCN1C[C@@H]2C[C@H]1CN2Cc1ccc(Cn2c(-c3cncc(C#N)c3)nc3c(C)nc(OC)nc32)c(F)c1 [Example 309, 5-[9-(4-{[(1S,4S)-5-ethyl-2,5-diazabicyclo[2.2.1]hept-2-yl]methyl}-2-fluorobenzyl)-2-methoxy-6-methyl-9H-purin-8-yl]pyridine-3-carbonitrile] | potent inhibitory effect against TLR7 | 20 nM |
| COc1nc(C)c2nc(-c3cccnc3)n(Cc3ccc(CN4C[C@@H]5C[C@H]4CN5C)cc3F)c2n1 [Example 310, 9-(2-fluoro-4-{[(1S,4S)-5-methyl-2,5-diazabicyclo[2.2.1]hept-2-yl]methyl}benzyl)-2-methoxy-6-methyl-8-(pyridin-3-yl)-9H-purine] | potent inhibitory effect against TLR7 | 28 nM |
